# From US8748445B2, “Methods for treating glioma” (The UAB Research Foundation, priority 2004, dated 2014)
# Experiments:
# [1] = tested on: glioma cells; assay: total intracellular glutathione content in glioma cells; format: cell-based, human
# Protocol: (§1) To determine if limiting cystine uptake via system Xc reduces the total intracellular glutathione content (GSH and glutathione disulfide), intracellular glutathione concentrations were determined in the presence and absence of sulfasalazine.
# [2] = tested on: cortical astrocytes; assay: intracellular glutathione in cortical astrocytes; format: cell-based; conditions: sulfasalazine 50-500 μM; compared to glioma cells (FIG. 2E)
# Protocol: as §1
# [3] = tested on: cortical neuronal cultures; assay: survival of cortical neuronal cultures; format: cell-based; conditions: (S)-4-CPG 0.25 mM and 0.5 mM (FIG. 3C); sulfasalazine data not shown
# [4] = tested on: D-54MG glioma cells; assay: BrdU incorporation, immunocytochemical studies; format: cell-based, human; conditions: DAPI co-staining (FIG. 4B)
# Protocol: BrdU incorporation was measured using an ELISA-based assay. D-54MG cells were grown in the presence or absence of inhibitors for 24 hours and pulsed for 2 hours with BrdU. The cells were cultured for an additional 48 hours and the amount of incorporated BrdU was measured using alkaline phosphatase conjugated to anti-BrdU antibodies. […] The inhibition of DNA synthesis was also seen in immunocytochemical studies.
# [5] = tested on: glioma cells; assay: cell death by flow cytometry using the Live/Dead assay kit; format: cell-based, human; conditions: 1 mM, 5 d incubation (FIG. 5E)
# Protocol: Because an accumulation of ROS can lead to apoptotic cell death, the ability of system Xc inhibitors to induce apoptosis in glioma cells was examined. […] Often apoptosis is dependent on caspase activities, so it was determined whether the system Xc inhibitors induce activated caspase-3, which is the convergent enzyme in the caspase-dependent signaling cascade. […] With 1 mM sulfasalazine, 90% of cells died over the 5 d incubation (FIG. 5E).
# [6] = tested on: D54-MG glioma cells; assay: intracranial D54-MG luciferase xenograft, bioluminescence imaging; format: in vivo, CB-17 scid mice
# Protocol: Therefore, the effect of inhibiting system Xc in an animal model of malignant glioma was examined. In these experiments, both (S)-4-CPG or sulfasalazine were used. […] In the described in vivo experiments, human gliomas were xenografted into the cranium of either female CB-17 scid mice or nude mice, both of which are frequently used animal models for malignant gliomas. The intracranial growth of tumors was assessed using the recently developed […] methodology for visualizing tumor growth.
# In one set of in vivo experiments, D54-MG glioma cells were stably transfected with the firefly luciferase gene under the control of the CMV promoter. One-half million cells were stereotactically implanted into the cranium of each CB-17 scid mouse. After 7 days, animals were randomized into three groups of 12 animals each. The control group received an intraperitoneal injection of 1 ml dose of saline twice daily. The two test groups received an 8 mg dose of sulfasalazine twice daily for either 1 or 3 weeks. Animals were imaged for tumor size, typically once per week, using a bioluminescence imaging system (IVIS system; Xenogen). Light emission from the tumor regions (in relative photons/second) were quantified using Living Image, version 2.20.1, software provided by Xenogen and plotted as a function of time.
# [7] = tested on: glioma xenograft tumors; assay: tumor size by hematoxylin-eosin staining of brain sections; format: in vivo, mice; conditions: 8 mg in 1 ml saline twice per day; 30 days after tumor induction (FIGS. 7C, 7D)
# Protocol: To validate that these experiments represent, at least qualitatively, changes in tumor size, two animals each from the control and treatment groups were sacrificed at 30 days after tumor induction. Histological sections were obtained and traditional hematoxylin-eosin (H&E) staining were performed. FIGS. 7C and 7D show the results for the control group (saline treatment only) and the treatment group (8 mg sulfasalazine in 1 ml saline, twice per day).
smiles,measurement,setting,value
O=C(O)c1cc(/N=N/c2ccc(S(=O)(=O)Nc3ccccn3)cc2)ccc1O [sulfasalazine],intracellular glutathione concentration,"[1]; 0.25 mM, glioma cells D-54MG, U-87MG, U-251MG and primary glioma culture GBM64 (FIG. 2F)",depleted intracellular glutathione concentration
same,intracellular glutathione concentration,"[1]; D-54MG glioma cells, sulfasalazine 50-500 μM, time and dose-dependent, after 24 h (FIG. 2D)",almost complete glutathione depletion
same,intracellular glutathione concentration in astrocytes,[2],a smaller effect
same,survival/growth of cortical neuronal cultures,[3],Neither (S)-4-CPG (FIG. 3C) nor sulfasalazine (data not shown) affected
same,"incorporation of BrdU, immunocytochemistry",[4],virtually abolished incorporation of BrdU
same,cells died,[5],90%
same,tumor expansion (relative bioluminescence),"[6]; 8 mg intraperitoneal twice daily for either 1 or 3 weeks, from day 7 (FIG. 7A)",significantly reduced
same,tumor growth after retreatment,[6]; retreated at day 53 for 3 days after termination of treatment (FIG. 7A),again reduced after retreatment
same,"tumor size versus control group, H&E staining",[7],significantly smaller
